Results taken from US20250163024A1, “CHEMICAL TARGETING SWI/SNF RELATED, MATRIX ASSOCIATED, ACTIN DEPENDENT REGULATOR OF CHROMATIN, SUBFAMILY A, MEMBER 4 (SMARCA4) AND USE IN DIFFUSE INTRINSIC PONTINE GLIOMA (DIPG)” (DANA-FARBER CANCER INSTITUTE, INC., priority 2022, published 2025).
Read-outs that look alike come from different tables or passages of the source.

Legend:
Assay type in all cases: cell-based
[1] = test system: MOLM13 (acute monocytic leukemia) cells; assay: Cell proliferation assay (ATPlite cell viability) in MOLM13 cells; settings: for IC50: Homo sapiens
Method: 2000 cells were seeded in 50 μL of RPMI medium in each well of a white, solid bottomed 384-well plate. Plates were spun down briefly, and seeded cells were pinned with […] of the bifunctional compound at serial three-fold diluted concentrations using the JANUS® Liquid Handling Workstation. […] After compound treatment, 15 μL of 1:2 solution of ATPlite™ 1Step diluted in PBS was added to each well of the 384-well plates. Plates were put on a plate shaker for 1 minute and incubated at room temperature for 9 minutes, and the resulting luminescence signal was read using an EnVision® plate reader. Cell viability was calculated by normalizing luminescence signals of SMARC compound treated cells to that of vehicle treated cells.

[2] = test system: MV411 (human myelomonocytic leukemia) cells; assay: Cell proliferation assay (ATPlite cell viability) in MV411 cells; settings: for IC50: Homo sapiens, MV4-11, 48 hours
Method: 2000 cells were seeded in 50 μL of RPMI medium in each well of a white, solid bottomed 384-well plate. Plates were spun down briefly, and seeded cells were pinned with […] of the bifunctional compound at serial three-fold diluted concentrations using the JANUS® Liquid Handling Workstation. Plates were incubated at 37° C. in 5% CO2 for the indicated treatment time (48 hours). After compound treatment, 15 μL of 1:2 solution of ATPlite™ 1Step diluted in PBS was added to each well of the 384-well plates. Plates were put on a plate shaker for 1 minute and incubated at room temperature for 9 minutes, and the resulting luminescence signal was read using an EnVision® plate reader. Cell viability was calculated by normalizing luminescence signals of SMARC compound treated cells to that of vehicle treated cells.

SMARCA4 (BRG) = target: T1, SMARCA4 (BRG) (Homo sapiens, UniProt P51532); assay: Cellular degradation of SMARCA4 in NOMO-1 cells (western blot); settings: NOMO1 cells, low micromolar treatment, 24 hours, western blot FIG. 1A-1B
T1 construct: endogenous in cells; host or cells: NOMO-1 cells
T1 sequence (P51532 whole entry): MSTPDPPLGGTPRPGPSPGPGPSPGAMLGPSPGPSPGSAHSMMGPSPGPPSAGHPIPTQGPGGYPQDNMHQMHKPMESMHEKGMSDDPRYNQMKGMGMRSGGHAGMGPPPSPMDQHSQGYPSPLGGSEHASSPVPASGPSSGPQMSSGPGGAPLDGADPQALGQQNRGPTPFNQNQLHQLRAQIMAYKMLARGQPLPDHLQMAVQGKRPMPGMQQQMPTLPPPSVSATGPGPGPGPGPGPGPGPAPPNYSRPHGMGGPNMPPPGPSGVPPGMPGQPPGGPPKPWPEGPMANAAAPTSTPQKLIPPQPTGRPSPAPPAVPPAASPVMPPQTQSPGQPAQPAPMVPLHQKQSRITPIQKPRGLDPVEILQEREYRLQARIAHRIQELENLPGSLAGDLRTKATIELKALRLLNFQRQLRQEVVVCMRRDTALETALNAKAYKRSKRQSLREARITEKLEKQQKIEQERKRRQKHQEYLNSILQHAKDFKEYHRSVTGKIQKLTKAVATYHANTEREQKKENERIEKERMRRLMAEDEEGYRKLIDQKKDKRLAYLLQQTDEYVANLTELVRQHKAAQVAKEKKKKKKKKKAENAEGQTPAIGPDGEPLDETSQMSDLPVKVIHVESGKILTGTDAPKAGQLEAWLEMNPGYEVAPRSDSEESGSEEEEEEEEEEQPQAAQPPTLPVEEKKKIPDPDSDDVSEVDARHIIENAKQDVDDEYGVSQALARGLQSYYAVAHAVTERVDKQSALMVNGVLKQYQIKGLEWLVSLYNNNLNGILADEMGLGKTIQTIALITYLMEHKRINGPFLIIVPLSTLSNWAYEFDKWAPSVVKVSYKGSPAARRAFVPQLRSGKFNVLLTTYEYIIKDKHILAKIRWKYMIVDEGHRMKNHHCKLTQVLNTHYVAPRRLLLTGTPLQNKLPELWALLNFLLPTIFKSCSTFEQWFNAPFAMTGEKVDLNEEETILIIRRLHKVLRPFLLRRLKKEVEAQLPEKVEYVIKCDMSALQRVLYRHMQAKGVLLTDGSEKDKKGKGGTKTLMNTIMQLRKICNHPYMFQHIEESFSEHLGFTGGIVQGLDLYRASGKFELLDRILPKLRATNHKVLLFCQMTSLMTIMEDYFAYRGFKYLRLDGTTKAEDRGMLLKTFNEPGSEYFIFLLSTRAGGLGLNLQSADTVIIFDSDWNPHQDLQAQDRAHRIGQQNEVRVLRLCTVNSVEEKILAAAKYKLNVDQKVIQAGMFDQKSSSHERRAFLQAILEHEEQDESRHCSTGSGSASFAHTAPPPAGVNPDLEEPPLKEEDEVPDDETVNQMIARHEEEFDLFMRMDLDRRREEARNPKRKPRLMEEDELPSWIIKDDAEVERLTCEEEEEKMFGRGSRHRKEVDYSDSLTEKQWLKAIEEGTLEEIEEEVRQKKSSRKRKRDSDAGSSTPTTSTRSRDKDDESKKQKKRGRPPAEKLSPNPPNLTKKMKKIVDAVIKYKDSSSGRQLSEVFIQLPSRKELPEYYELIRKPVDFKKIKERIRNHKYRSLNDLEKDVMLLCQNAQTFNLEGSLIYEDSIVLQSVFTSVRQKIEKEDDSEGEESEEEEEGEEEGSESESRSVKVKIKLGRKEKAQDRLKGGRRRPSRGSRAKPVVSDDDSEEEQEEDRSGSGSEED
Method: For each tested condition, 1 million cells were seeded into a well of a 6-well plate. After overnight incubation at 37° C. in 5% CO2, cells were treated with either DMSO or varying doses of the indicated bifunctional compound and put back into the incubator for the indicated treatment time. Treated cells were collected by transferring cell suspensions from 6-well plate wells into microcentrifuge tubes and spinning down samples at 3000 rpm for 3 minutes. Supernatant was discarded and all samples were washed with phosphate-buffered saline (PBS) to remove any remaining compound from the cells. Cells were lysed using radioimmunoprecipitation assay (RIPA) buffer and sonicated on ice for 3 seconds at 25% amplification and allowed to rest for 15-30 minutes. Lysates were then spun down at 15000 rpm for 10 minutes and supernatant was collected. Protein concentration was measured using the Pierce™ bicinchoninic acid (BCA) Protein Assay Kit from ThermoFisher Scientific according to the manufacturer's instructions. Equivalent amounts of protein were resolved by western blotting using 4-12% Bis-Tris NuPAGE™ gels (Thermo-Fisher Scientific) prior to transfer and overnight immunoblotting using primary antibodies to the proteins indicated. […]

[3] = MOLM-13, 48 hours, read-out: IC50 (μM) MOLM13-48h
[4] = MOLM-13, 72 h (starred values), read-out: IC50 (μM) MOLM13, *72 h

| IC50 [1, 3] [µM] | IC50 [2] [µM] | SMILES | also measured |
| --- | --- | --- | --- |
| 0.0571 | 0.109 | O=C1CCC(N2C(=O)c3cccc(NCCCCNC(=O)c4cccc(C#Cc5cc(NC(=O)Nc6ccnc(Cl)c6)ccn5)c4)c3C2=O)C(=O)N1 (racemic) [Compound 19, 3-((4-(3-(2-chloropyridin-4-yl)ureido)pyridin-2-yl)ethynyl)-N-(4-((2-(2,6-dioxopiperidin-3-yl)-1,3-dioxoisoindolin-4-yl)amino)butyl)benzamide] | IC50 (μM) MOLM13-48h ([1]; 48 hours): submicromolar; IC50 (μM) MV411-48h [2]: submicromolar |
|  |  | O=C1CCC(N2C(=O)c3cccc(NCCCCNC(=O)c4cccc(CCc5cc(NC(=O)Nc6ccnc(Cl)c6)ccn5)c4)c3C2=O)C(=O)N1 (stereo not drawn) [Compound 5, 3-(2-(4-(3-(2-chloropyridin-4-yl)ureido)pyridin-2-yl)ethyl)-N-(4-((2-(2,6-dioxopiperidin-3-yl)-1,3-dioxoisoindolin-4-yl)amino)butyl)benzamide] | BRG (SMARCA4) degradation (SMARCA4 (BRG)): significantly degraded |
|  |  | O=C1CCC(N2C(=O)c3cccc(NCCCCNC(=O)c4ccc(C#Cc5cc(NC(=O)Nc6ccnc(Cl)c6)ccn5)cc4)c3C2=O)C(=O)N1 (stereo not drawn) [Compound 6, 4-((4-(3-(2-chloropyridin-4-yl)ureido)pyridin-2-yl)ethynyl)-N-(4-((2-(2,6-dioxopiperidin-3-yl)-1,3-dioxoisoindolin-4-yl)amino)butyl)benzamide] | BRG (SMARCA4) degradation (SMARCA4 (BRG)): significantly degraded |
|  | 0.491 | O=C1CCC(N2C(=O)c3cccc(NCCCCCCCCNC(=O)c4cccc(C#Cc5cc(NC(=O)Nc6ccnc(Cl)c6)ccn5)c4)c3C2=O)C(=O)N1 (stereo not drawn) [Compound 17] | IC50 [1, 4]: 0.566 µM |
| 0.0793 | 0.0102 | O=C1CCC(N2C(=O)c3ccc(NCCCCNC(=O)c4cccc(C#Cc5cc(NC(=O)Nc6ccnc(Cl)c6)ccn5)c4)cc3C2=O)C(=O)N1 (stereo not drawn) [Compound 21] |  |
| 0.253 | 0.037 | O=C1CCC(N2C(=O)c3ccc(NCCOCCNC(=O)c4cccc(C#Cc5cc(NC(=O)Nc6ccnc(Cl)c6)ccn5)c4)cc3C2=O)C(=O)N1 (stereo not drawn) [Compound 22] |  |
| 6.18 | 21.7 | O=C1CCC(N2C(=O)c3cccc(NCCNC(=O)c4cccc(C#Cc5cc(NC(=O)Nc6ccnc(Cl)c6)ccn5)c4)c3C2=O)C(=O)N1 (stereo not drawn) [Compound 23] |  |
| 0.344 | 0.0389 | O=C1CCC(N2C(=O)c3cccc(NCCCCCCNC(=O)c4cccc(C#Cc5cc(NC(=O)Nc6ccnc(Cl)c6)ccn5)c4)c3C2=O)C(=O)N1 (stereo not drawn) [Compound 24] |  |

| SMILES | IC50 [1, 3] [µM] | IC50 [2] [µM] | also measured |
| --- | --- | --- | --- |
| O=C1CCC(N2C(=O)c3cccc(NCCOCCOCCNC(=O)c4cccc(C#Cc5cc(NC(=O)Nc6ccnc(Cl)c6)ccn5)c4)c3C2=O)C(=O)N1 (stereo not drawn) [Compound 18] |  | 0.109 | IC50 [1, 4]: 1.28 µM |
